Numbers after ± are expanded uncertainties.
Settings: Liquid; for vapor or sublimation pressure: Ebulliometric method (Recirculating still); for Normal boiling temperature: Siwoloboff method

CN1CCCC1=O [N-methylpyrrolidone]
Settings | Normal boiling temperature [°C] | vapor or sublimation pressure [kPa]
– | 202.14 ± 1.6 | –
380.76 K | – | 4.742 ± 0.086
388.05 K | – | 6.361 ± 0.12
400.39 K | – | 10.29 ± 0.19
411.34 K | – | 15.22 ± 0.27
420.9 K | – | 20.97 ± 0.38
432.23 K | – | 30.08 ± 0.54
441.78 K | – | 39.96 ± 0.72
451.08 K | – | 52.18 ± 0.94
457.44 K | – | 62.11 ± 1.1
475.79 K | – | 99.4 ± 1.8

CCO[Si](C)(OCC)c1cccc(C)c1 [diethoxy(methyl)(m-tolyl)silane]
Settings | Normal boiling temperature [°C] | vapor or sublimation pressure [kPa]
– | 235.8 ± 1.6 | –
391.91 K | – | 2 ± 0.04
400.12 K | – | 3 ± 0.05
406.47 K | – | 4 ± 0.07
411.84 K | – | 5 ± 0.09
416.3 K | – | 6 ± 0.11
420.23 K | – | 7 ± 0.13
426.81 K | – | 9 ± 0.16
432.31 K | – | 11 ± 0.2
439.13 K | – | 14 ± 0.25
444.83 K | – | 17 ± 0.31
449.84 K | – | 20 ± 0.36
454.26 K | – | 23 ± 0.41
458.23 K | – | 26 ± 0.47
461.73 K | – | 29 ± 0.52
465.1 K | – | 32 ± 0.58
468.22 K | – | 35 ± 0.63
471.02 K | – | 38 ± 0.68
473.69 K | – | 41 ± 0.74
476.21 K | – | 44 ± 0.79
478.56 K | – | 47 ± 0.85
480.85 K | – | 50 ± 0.9
483.08 K | – | 53 ± 0.95
485.67 K | – | 57 ± 1
488.08 K | – | 61 ± 1.1

CCO[Si](C)(OCC)c1ccccc1C [diethoxy(methyl)(o-tolyl)silane]
Settings | Normal boiling temperature [°C] | vapor or sublimation pressure [kPa]
– | 239.83 ± 1.6 | –
393.45 K | – | 2 ± 0.04
401.5 K | – | 3 ± 0.05
407.98 K | – | 4 ± 0.07
413.33 K | – | 5 ± 0.09
417.79 K | – | 6 ± 0.11
421.8 K | – | 7 ± 0.13
431.54 K | – | 10 ± 0.18
439.05 K | – | 13 ± 0.23
445.46 K | – | 16 ± 0.29
450.67 K | – | 19 ± 0.34
455.4 K | – | 22 ± 0.4
459.55 K | – | 25 ± 0.45
463.3 K | – | 28 ± 0.5
466.73 K | – | 31 ± 0.56
469.94 K | – | 34 ± 0.61
472.92 K | – | 37 ± 0.67
475.72 K | – | 40 ± 0.72
478.35 K | – | 43 ± 0.77
480.89 K | – | 46 ± 0.83
483.26 K | – | 49 ± 0.88

CCO[Si](C)(OCC)c1ccc(C)cc1 [diethoxy(methyl)(p-tolyl)silane]
Settings | Normal boiling temperature [°C] | vapor or sublimation pressure [kPa]
– | 239.57 ± 1.6 | –
394.65 K | – | 2 ± 0.04
402.86 K | – | 3 ± 0.05
409.39 K | – | 4 ± 0.07
414.72 K | – | 5 ± 0.09
419.19 K | – | 6 ± 0.11
423.25 K | – | 7 ± 0.13
429.82 K | – | 9 ± 0.16
435.35 K | – | 11 ± 0.2
442.33 K | – | 14 ± 0.25
448.16 K | – | 17 ± 0.31
453.16 K | – | 20 ± 0.36
457.61 K | – | 23 ± 0.41
461.72 K | – | 26 ± 0.47
465.36 K | – | 29 ± 0.52
468.68 K | – | 32 ± 0.58
471.81 K | – | 35 ± 0.63
474.73 K | – | 38 ± 0.68
477.27 K | – | 41 ± 0.74
479.82 K | – | 44 ± 0.79
482.24 K | – | 47 ± 0.85
484.62 K | – | 50 ± 0.9
486.87 K | – | 53 ± 0.95

From the NIST ThermoML archive (doi:10.1016/j.fluid.2012.08.009)
